# From BindingDB's records for doi:10.1016/0960-894X(96)00014-5 (1996)
# Assay: Compound was tested for inhibition of chymotrypsin-like protease of proteasome from postmortem human liver and brain
row,SMILES,IC50 [nM]
1,CC(C)CC(NC(=O)C(CCCN=C(N)N[N+](=O)[O-])NC(=O)C(CCCCCCCCC#N)C1CCCC1)B1OC(C)(C)C(C)(C)O1 (stereo not drawn) [Alpha-ketocarbonyl boronic ester derivative],8
2,CC(C)CC(NC(=O)C(CCCN=C(N)N[N+](=O)[O-])NC(=O)C(CCCCCCCCC#N)C1CCCC1)C(=O)CCl (stereo not drawn) [Alpha-ketocarbonyl derivative],> 1000
3,CC(C)CC(C=O)NC(=O)C(CCCN=C(N)N[N+](=O)[O-])NC(=O)C(CCCCCCCCN1C(=O)c2ccccc2C1=O)C1CCCC1 (stereo not drawn) [Alpha-ketocarbonyl derivative],2
